What was measured:
human TLR8 = biological target: T1, human TLR8 (Homo sapiens, UniProt Q9NR97); test: HEK293-Blue-hTLR-8 cells assay; type: cell-based; conditions: HEK293-Blue-hTLR8 cells, R848 stimulation, 20 hrs, SEAP reporter; read-out: HEK/hTLR8 IC50
T1 construct: host or cells: HEK293-Blue-hTLR-8 (HEK293)
T1 sequence (Q9NR97 27-1041): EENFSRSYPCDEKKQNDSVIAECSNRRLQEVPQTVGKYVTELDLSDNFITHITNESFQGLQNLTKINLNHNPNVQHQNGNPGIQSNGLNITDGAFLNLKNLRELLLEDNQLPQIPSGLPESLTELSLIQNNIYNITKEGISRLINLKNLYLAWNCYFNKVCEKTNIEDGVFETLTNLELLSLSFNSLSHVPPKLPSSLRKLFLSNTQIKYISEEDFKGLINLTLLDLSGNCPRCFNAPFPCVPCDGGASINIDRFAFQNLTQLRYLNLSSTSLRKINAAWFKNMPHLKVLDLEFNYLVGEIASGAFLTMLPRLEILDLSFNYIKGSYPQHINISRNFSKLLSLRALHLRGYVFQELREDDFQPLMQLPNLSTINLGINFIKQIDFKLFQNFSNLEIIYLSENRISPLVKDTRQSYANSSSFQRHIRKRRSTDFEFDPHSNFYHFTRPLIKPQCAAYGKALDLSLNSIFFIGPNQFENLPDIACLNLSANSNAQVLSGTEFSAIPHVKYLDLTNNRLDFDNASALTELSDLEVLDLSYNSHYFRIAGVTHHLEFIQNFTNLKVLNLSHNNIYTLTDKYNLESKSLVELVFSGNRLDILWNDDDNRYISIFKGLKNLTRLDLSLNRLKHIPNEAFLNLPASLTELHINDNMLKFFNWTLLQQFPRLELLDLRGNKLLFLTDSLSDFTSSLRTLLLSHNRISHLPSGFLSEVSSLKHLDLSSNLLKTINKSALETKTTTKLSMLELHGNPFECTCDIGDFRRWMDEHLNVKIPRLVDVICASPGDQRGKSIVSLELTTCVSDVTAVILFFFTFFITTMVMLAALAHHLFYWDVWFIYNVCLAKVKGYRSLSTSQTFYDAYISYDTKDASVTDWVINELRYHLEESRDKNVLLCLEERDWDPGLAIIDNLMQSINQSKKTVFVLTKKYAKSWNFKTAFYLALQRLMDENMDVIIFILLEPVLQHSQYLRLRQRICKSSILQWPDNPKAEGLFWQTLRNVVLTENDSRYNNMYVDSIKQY
Protocol: The following tests were carried out in order to determine the activity of the compounds of formula (I) and (Ia) in HEK293-Blue-hTLR-7/8/9 cells assay.
HEK293-Blue-hTLR-8 cells assay:
A stable HEK293-Blue-hTLR-8 cell line was purchased from InvivoGen (Cat. #: hkb-htlr8, San Diego, Calif., USA). These cells were originally designed for studying the stimulation of human TLR8 by monitoring the activation of NE-κB. A SEAP (secreted embryonic alkaline phosphatase) reporter gene was placed under the control of the IFN-β minimal promoter fused to five NE-κB and AP-1-binding sites. The SEAP was induced by activating NE-κB and AP-1 via stimulating HEK-Blue hTLR8 cells with TLR8 ligands. Therefore the reporter expression was declined by TLR8 antagonist under the stimulation of a ligand, such as R848, for incubation of 20 hrs. The cell culture supernatant SEAP reporter activity was determined using QUANTI-Blue™ kit (Cat. #: rep-qbl, Invivogen, San Diego, Ca, USA) at a wavelength of 640 nm, a detection medium that turns purple or blue in the presence of alkaline phosphatase.
HEK293-Blue-hTLR8 cells were incubated at a density of 250,000-450,000 cells/mL in a volume of 170 μL in a 96-well plate in Dulbecco's Modified Eagle's medium (DMEM) containing 4.5 g/L glucose, 50 U/mL penicillin, […], […], 2 mM L-glutamine, 10% (v/v) heat-inactivated fetal bovine serum with addition of 20 μL test compound in a serial dilution in the presence of final DMSO at 1% and 10 μL of 60 uM R848 in above DMEM, perform incubation under 37° C. in a CO2 incubator for 20 hrs. Then 20 μL of the supernatant from each well was incubated with 180 μL Quanti-blue substrate solution at 37° C. for 2 hrs and the absorbance was read at 620˜655 nm using a spectrophotometer. The signalling pathway that TLR8 activation leads to downstream NE-κB activation has been widely accepted, and therefore similar reporter assay was modified for evaluating TLR8 antagonist.

[1] = Human microsome stability assay; type: in vitro ADME; conditions: 1 μM test compound, 0.5 mg/mL liver microsomal protein, 37° C.
Protocol: Human microsome stability assay
The human microsomal stability assay is used for early assessment of metabolic stability of a test compound in human liver microsomes.
Human liver microsomes (Cat.NO.: 452117, Corning, USA;Cat.NO.:H2610, Xenotech, USA) were preincubated with test compound for 10 minutes at 37° C. in 100 mM potassium phosphate buffer, pH 7.4. The reactions were initiated by adding NADPH regenerating system. The final incubation mixtures contained 1 μM test compound, 0.5 mg/mL liver microsomal protein, 1 mM MgCl2, 1 mM NADP, 1 unit/mL isocitric dehydrogenase and 6 mM isocitric acid in 100 mM potassium phosphate buffer, pH 7.4. After incubation times of 0, 3, 6, 9, 15 and 30 minutes at 37° C., 300 μL of cold acetonitrile (including internal standard) was added to 100 μL incubation mixture to terminate the reaction. Following precipitation and centrifugation, the amount of compound remaining in the samples were determined by LC-MS/MS. Controls of no NADPH regenerating system at zero and 30 minutes were also prepared and analyzed.

Row | IC50 (human TLR8) [nM] | Clearance of Human microsome [1] [mL/min/kg] | Structure (SMILES)
1 | 4 | 7.72 | Cc1cc(N2CCN(C[C@H]3CN(c4ccc(C#N)c5ncccc45)C[C@@H](C)O3)CC2)cc(CO)n1 [Example 50]
2 | < 3 | 6.15 | Cc1cc(N2CCN(C[C@H]3CN(c4ccc(C#N)c5ncccc45)C[C@@H](C)O3)CC2)cc(N)n1 [Example 40, 5-[(2S,6R)-2-[[4-(2-amino-6-methyl-4-pyridyl)piperazin-1-yl]methyl]-6-methyl-morpholin-4-yl]quinoline-8-carbonitrile]
3 | 51 | 6.15 | Cc1cc(N2CCC3(CN(C[C@H]4CN(c5ccc(C#N)c6ncccc56)C[C@@H](C)O4)C3)C2)cc(C)n1 [Example 9]
4 | 81 | 6.35 | Cc1cc(N2CC3(CN(C[C@H]4CN(c5ccc(C#N)c6ncccc56)C[C@@H](C)O4)C3)C2)cc(CO)n1 [Example 1, 5-[(2S,6R)-2-[[2-[2-(hydroxymethyl)-6-methyl-4-pyridyl]-2,6-diazaspiro[3.3]heptan-6-yl]methyl]-6-methyl-morpholin-4-yl]quinoline-8-carbonitrile]

The remaining lines, values behind:

Row | Structure (SMILES) | IC50 (human TLR8) [nM] | Clearance of Human microsome [1] [mL/min/kg]
5 | C[C@@H]1CN(c2ccc(C#N)c3ncccc23)C[C@H](CN2CC3(C2)CN(c2ccnc(C(C)(C)O)c2)C3)O1 [Example 48, 5-[(2S,6R)-2[[2-[2-(1-hydroxy-1-methyl-ethyl)-4-pyridyl]-2,6-diazaspiro[3.3]heptan-6-yl]methyl]-6-methyl-morpholin-4-yl]quinoline-8-carbonitrile] | 198 | 6.87
6 | Cc1cc(NC2CCN(C[C@H]3CN(c4ccc(C#N)c5ncccc45)C[C@@H](C)O3)CC2)cc(CO)n1 [Example 5] | 33 | 7.47
7 | Cc1cc(NC2CCN(C[C@H]3CN(c4ccc(C#N)c5ncccc45)C[C@@H](C)O3)C2)cc(CO)n1 (some centres unmarked) [Example 6] | 53 | 6.15
8 | C[C@@H]1CN(c2ccc(C#N)c3ncccc23)C[C@H](CN2CC3(C2)CN(c2ccnc(C4CC4)c2)C3)O1 [Example 49, 5-[(2S,6R)-2[[2-(2-cyclopropyl-4-pyridyl)-2,6-diazaspiro[3.3]heptan-6-yl]methyl]-6-methyl-morpholin-4-yl]quinoline-8-carbonitrile] | 20 | 6.39
9 | Cc1cc(NC2CN(C[C@H]3CN(c4ccc(C#N)c5ncccc45)C[C@@H](C)O3)C2)cc(C)n1 [Example 7] | 31 | 6.15
10 | Cc1cc(N2CCN(C[C@H]3CN(c4ccc(C#N)c5ncccc45)C[C@@H](C)O3)[C@@H](C)C2)cc(CO)n1 [Example 4A] | 7 | 6.15
11 | CC(O)c1cc(N2CC3(CN(C[C@H]4CN(c5ccc(C#N)c6ncccc56)C[C@@H](C)O4)C3)C2)ccn1 (stereo partly drawn) [Example 46, 5-[(2S,6R)-2-[[2-[2-(1-hydroxyethyl)-4-pyridyl]-2,6-diazaspiro[3.3]heptan-6-yl]methyl]-6-methyl-morpholin-4-yl]quinoline-8-carbonitrile] | 90 | 7.66
12 | Cc1cc(N2CC3(CN(C[C@H]4CN(c5ccc(C#N)c6ncccc56)C[C@@H](C)O4)C3)C2)cc(C(C)O)n1 (stereo partly drawn) [Example 44, 5-[(2S,6R)-2-[[2-[2-(1-hydroxyethyl)-6-methyl-4-pyridyl]-2,6-diazaspiro[3.3]heptan-6-yl]methyl]-6-methyl-morpholin-4-yl]quinoline-8-carbonitrile] | 30 | 7.21
13 | Cc1cc(N2CC(N(C)C[C@H]3CN(c4ccc(C#N)c5ncccc45)C[C@@H](C)O3)C2)cc(CO)n1 [Example 37] | < 3 | 6.15

Source: patent US20210269451A1, “PYRIDINYL HETEROCYCLYL COMPOUNDS FOR THE TREATMENT OF AUTOIMMUNE DISEASE” (Hoffmann-La Roche Inc., priority 2018, published 2021)
